# Test results reported in PubChem BioAssay AID180 (DTP/NCI, 2004).
# Values joined by “and” are separate entries in the source; they are usually repeats but may differ in a detail not shown here. Identical values can stand only once.
# Test system: BDF1 mice, Adenocarcinoma 755 s.c., tumor weight T/C
# Assay: NCI In Vivo Anticancer Drug Screen. Data for tumor model Adenocarcinoma 755 (subcutaneous) in B6D2F1 (BDF1) mice
# Conditions: endpoint: mean tumor weight, higher = larger tumour
# How it was run: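 Values express treated (T) relative to vehicle-dosed control (C) animals, based on survival or tumour size measured after compound treatment of mice bearing a transplanted tumour.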
# [1] = dose: 50.0 mg/kg/injection, schedule: Q01DX011 (ip), vehicle: carboxymethylcellulose (CMC)
# [2] = dose: 100.0 mg/kg/injection, schedule: Q01DX011 (ip), vehicle: carboxymethylcellulose (CMC)
# [3] = dose: 2.0 mg/kg/injection, schedule: Q01DX011 (ip), vehicle: saline
# [4] = dose: 6.0 mg/kg/injection, schedule: Q01DX011 (ip), vehicle: carboxymethylcellulose (CMC)
# [5] = dose: 12.0 mg/kg/injection, schedule: Q01DX011 (ip), vehicle: carboxymethylcellulose (CMC)
# [6] = dose: 24.0 mg/kg/injection, schedule: Q01DX011 (ip), vehicle: carboxymethylcellulose (CMC)
# [7] = dose: 15.0 mg/kg/injection, schedule: Q01DX011 (ip), vehicle: methylcellulose (MC)
# [8] = dose: 100.0 mg/kg/injection, schedule: Q01DX011 (ip), vehicle: saline
# [9] = dose: 25.0 mg/kg/injection, schedule: Q01DX011 (ip), vehicle: methylcellulose (MC)
# [10] = dose: 75.0 mg/kg/injection, schedule: Q01DX011 (ip), vehicle: methylcellulose (MC)
# [11] = dose: 30.0 mg/kg/injection, schedule: Q01DX011 (ip), vehicle: methylcellulose (MC)
smiles,measurement,setting,value
CC(C)(COS(C)(=O)=O)C(=O)N1CCN(C(=O)C(C)(C)COS(C)(=O)=O)CC1,T/C,"dose: 2.4 mg/kg/injection, schedule: Q01DX011 (ip), vehicle: carboxymethylcellulose (CMC)",162 % of control
same,T/C,"dose: 4.7 mg/kg/injection, schedule: Q01DX011 (ip), vehicle: carboxymethylcellulose (CMC)",82 % of control
same,T/C,"dose: 9.4 mg/kg/injection, schedule: Q01DX011 (ip), vehicle: carboxymethylcellulose (CMC)",60 % of control
same,T/C,"dose: 18.8 mg/kg/injection, schedule: Q01DX011 (ip), vehicle: carboxymethylcellulose (CMC)",57 % of control
Nc1ccc2ccccc2c1N=Nc1ccccc1,T/C,"dose: 25.0 mg/kg/injection, schedule: Q01DX011 (ip), vehicle: carboxymethylcellulose (CMC)",68 % of control
same,T/C,[1],27 % of control
same,T/C,[2],34 % of control
same,T/C,"dose: 200.0 mg/kg/injection, schedule: Q01DX011 (ip), vehicle: carboxymethylcellulose (CMC)",25 % of control
CCCC(=O)OCC1OC(n2cnc3c(=S)nc(N)[nH]c32)C(OC(=O)CCC)C1OC(=O)CCC (stereo not drawn),T/C,"dose: 0.16 mg/kg/injection, schedule: Q01DX011 (ip), vehicle: saline",57 % of control
same,T/C,"dose: 0.38 mg/kg/injection, schedule: Q01DX011 (ip), vehicle: saline",88 % of control
same,T/C,"dose: 0.58 mg/kg/injection, schedule: Q01DX011 (ip), vehicle: saline",82 % of control
same,T/C,"dose: 1.3 mg/kg/injection, schedule: Q01DX011 (ip), vehicle: saline",31 % of control
same,T/C,[3],18 % of control
same,T/C,"dose: 3.0 mg/kg/injection, schedule: Q01DX011 (ip), vehicle: saline",4 % of control
same,T/C,[4],2 % of control and 11 % of control
same,T/C,[5],2 % of control and 3 % of control
same,T/C,[6],1 % of control
C=CC(O)CN1CC1=C (stereo not drawn),T/C,"dose: 1.9 mg/kg/injection, schedule: Q01DX011 (ip), vehicle: methylcellulose (MC)",77 % of control
same,T/C,"dose: 3.75 mg/kg/injection, schedule: Q01DX011 (ip), vehicle: methylcellulose (MC)",111 % of control
same,T/C,"dose: 7.5 mg/kg/injection, schedule: Q01DX011 (ip), vehicle: methylcellulose (MC)",73 % of control
same,T/C,[7],21 % of control
CN(C)N=Nc1ccc(C(=O)NC(CCC(=O)NN)C(=O)NN)cc1 (stereo not drawn),T/C,[8],92 % of control
same,T/C,"dose: 150.0 mg/kg/injection, schedule: Q01DX011 (ip), vehicle: saline",81 % of control
O=C(OCC1OC(n2cnc3c(=S)nc[nH]c32)C(OC(=O)c2ccccc2)C1OC(=O)c1ccccc1)c1ccccc1 (stereo not drawn),T/C,"dose: 8.0 mg/kg/injection, schedule: Q01DX011 (ip), vehicle: carboxymethylcellulose (CMC)",98 % of control
same,T/C,"dose: 15.0 mg/kg/injection, schedule: Q01DX011 (ip), vehicle: carboxymethylcellulose (CMC)",91 % of control
same,T/C,"dose: 31.0 mg/kg/injection, schedule: Q01DX011 (ip), vehicle: carboxymethylcellulose (CMC)",99 % of control
same,T/C,"dose: 32.0 mg/kg/injection, schedule: Q01DX011 (ip), vehicle: carboxymethylcellulose (CMC)",53 % of control
same,T/C,[1],53 % of control
same,T/C,[2],7 % of control
same,T/C,"dose: 125.0 mg/kg/injection, schedule: Q01DX011 (ip), vehicle: carboxymethylcellulose (CMC)",2 % of control and 6 % of control and 12 % of control
same,T/C,"dose: 250.0 mg/kg/injection, schedule: Q01DX011 (ip), vehicle: carboxymethylcellulose (CMC)",1 % of control
OCCNc1ncnc2c1ncn2C1OC(CO)C(O)C1O (stereo not drawn),T/C,[9],55 % of control
same,T/C,"dose: 50.0 mg/kg/injection, schedule: Q01DX011 (ip), vehicle: methylcellulose (MC)",49 % of control
same,T/C,[10],17 % of control
same,T/C,"dose: 100.0 mg/kg/injection, schedule: Q01DX011 (ip), vehicle: methylcellulose (MC)",27 % of control
same,T/C,"dose: 200.0 mg/kg/injection, schedule: Q01DX011 (ip), vehicle: methylcellulose (MC)",7 % of control
CC1CN1C(=O)c1cc(C(=O)N2CC2C)cc(C(=O)N2CC2C)c1 (stereo not drawn),T/C,[7],69 % of control
same,T/C,[11],57 % of control and 64 % of control
Oc1ccc2ccccc2c1N=Nc1ccccc1,T/C,"dose: 50.0 mg/kg/injection, schedule: Q01DX011 (ip), vehicle: saline",69 % of control
same,T/C,[8],55 % of control
same,T/C,"dose: 200.0 mg/kg/injection, schedule: Q01DX011 (ip), vehicle: saline",50 % of control
NNC(=O)c1nsnc1NC(N)=O,T/C,"dose: 43.0 mg/kg/injection, schedule: Q01DX011 (ip), vehicle: carboxymethylcellulose (CMC)",39 % of control
same,T/C,"dose: 60.0 mg/kg/injection, schedule: Q01DX011 (ip), vehicle: carboxymethylcellulose (CMC)",18 % of control
Nc1ncnc2c1ncn2CCCl,T/C,"dose: 37.5 mg/kg/injection, schedule: Q01DX011 (ip), vehicle: methylcellulose (MC)",84 % of control
same,T/C,[10],31 % of control
Cc1cc(Nc2cccc(Cl)c2)nc(N)n1,T/C,[7],114 % of control
same,T/C,"dose: 31.0 mg/kg/injection, schedule: Q01DX011 (ip), vehicle: methylcellulose (MC)",56 % of control
CCCCCCCCOP(=O)(N1CC1)N1CC1,T/C,"dose: 0.1 mg/kg/injection, schedule: Q01DX011 (ip), vehicle: saline",75 % of control and 79 % of control
same,T/C,"dose: 0.2 mg/kg/injection, schedule: Q01DX011 (ip), vehicle: saline",65 % of control and 80 % of control
same,T/C,"dose: 1.0 mg/kg/injection, schedule: Q01DX011 (ip), vehicle: saline",29 % of control
same,T/C,[3],57 % of control and 66 % of control
same,T/C,"dose: 4.5 mg/kg/injection, schedule: Q01DX011 (ip), vehicle: saline",56 % of control and 66 % of control
Cc1ccc(N2CCN(CCCN3CCN(c4ccccc4Cl)CC3)CC2)cc1,T/C,[4],84 % of control
same,T/C,"dose: 11.0 mg/kg/injection, schedule: Q01DX011 (ip), vehicle: methylcellulose (MC)",29 % of control
same,T/C,[5],64 % of control
same,T/C,"dose: 22.0 mg/kg/injection, schedule: Q01DX011 (ip), vehicle: methylcellulose (MC)",34 % of control
same,T/C,"dose: 22.5 mg/kg/injection, schedule: Q01DX011 (ip), vehicle: carboxymethylcellulose (CMC)",50 % of control and 55 % of control
same,T/C,"dose: 22.5 mg/kg/injection, schedule: Q01DX011 (ip), vehicle: other",93 % of control
same,T/C,[6],65 % of control
same,T/C,"dose: 45.0 mg/kg/injection, schedule: Q01DX011 (ip), vehicle: carboxymethylcellulose (CMC)",50 % of control and 59 % of control
same,T/C,"dose: 45.0 mg/kg/injection, schedule: Q01DX011 (ip), vehicle: methylcellulose (MC)",12 % of control
same,T/C,"dose: 45.0 mg/kg/injection, schedule: Q01DX011 (ip), vehicle: other",69 % of control
same,T/C,"dose: 48.0 mg/kg/injection, schedule: Q01DX011 (ip), vehicle: carboxymethylcellulose (CMC)",63 % of control
same,T/C,"dose: 90.0 mg/kg/injection, schedule: Q01DX011 (ip), vehicle: carboxymethylcellulose (CMC)",43 % of control and 62 % of control
same,T/C,"dose: 96.0 mg/kg/injection, schedule: Q01DX011 (ip), vehicle: carboxymethylcellulose (CMC)",43 % of control
O=C1C=Cc2ccc(O)cc2C1=O,T/C,[3],103 % of control
same,T/C,"dose: 8.0 mg/kg/injection, schedule: Q01DX011 (ip), vehicle: saline",50 % of control
CC(=O)[C@H]1CC[C@H]2[C@@H]3C[C@H](C)C4=CC(=O)CC[C@]4(C)[C@H]3C(=O)C[C@]12C,T/C,"dose: 25.0 mg/kg/injection, schedule: Q01DX011 (sc), vehicle: steriod suspending solution",65 % of control
same,T/C,"dose: 50.0 mg/kg/injection, schedule: Q01DX011 (sc), vehicle: steriod suspending solution",78 % of control
same,T/C,"dose: 200.0 mg/kg/injection, schedule: Q01DX011 (sc), vehicle: steriod suspending solution",35 % of control and 43 % of control
same,T/C,"dose: 400.0 mg/kg/injection, schedule: Q01DX011 (sc), vehicle: steriod suspending solution",21 % of control
same,T/C,"dose: 800.0 mg/kg/injection, schedule: Q01DX011 (sc), vehicle: steriod suspending solution",30 % of control
CC1CCN(/N=N/c2nc3c([nH]2)c(=O)n(C)c(=O)n3C)CC1,T/C,[9],41 % of control
same,T/C,[10],57 % of control
O=C(N/N=C\c1ccc(Br)cc1)c1ccncc1,T/C,[11],52 % of control
same,T/C,"dose: 60.0 mg/kg/injection, schedule: Q01DX011 (ip), vehicle: methylcellulose (MC)",52 % of control
same,T/C,"dose: 120.0 mg/kg/injection, schedule: Q01DX011 (ip), vehicle: methylcellulose (MC)",62 % of control
same,T/C,"dose: 240.0 mg/kg/injection, schedule: Q01DX011 (ip), vehicle: methylcellulose (MC)",37 % of control
same,T/C,"dose: 500.0 mg/kg/injection, schedule: Q01DX011 (ip), vehicle: methylcellulose (MC)",64 % of control
O=C1NC(=O)c2cc([N+](=O)[O-])cc3cccc1c23,T/C,"dose: 85.0 mg/kg/injection, schedule: Q01DX011 (ip), vehicle: methylcellulose (MC)",104 % of control
same,T/C,"dose: 680.0 mg/kg/injection, schedule: Q01DX011 (ip), vehicle: methylcellulose (MC)",89 % of control
O=C(CC[n+]1ccccc1)N1CCN(C(=O)CC[n+]2ccccc2)CC1,T/C,"dose: 1.0 mg/kg/injection, schedule: Q01DX011 (ip), vehicle: methylcellulose (MC)",94 % of control
same,T/C,"dose: 3.0 mg/kg/injection, schedule: Q01DX011 (ip), vehicle: methylcellulose (MC)",68 % of control
